Data as given in PubChem BioAssay AID179 (DTP/NCI, 2004).
Several values for one entry are separate records, joined by “and”; a condition that tells them apart may be missing. Equal values may be shown once. Activity calls are given as the source filed them.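 Rule for the calls: active = compounds giving half or more protection of infected cells from virus-caused growth loss, again on retest; inactive = the rest.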 Where a SMILES comes first, the peptide text is derived from it. [ ]: non-standard residue; d: D form. The star is where a group is joined. ξ: configuration not given here. NMeF = CN[CH](Cc1ccccc1)C(=O)O; ξNMe2Val = CC(C)C(C(=O)*)N(C)C; NMeV = CN[CH](C(=O)O)C(C)C; OtBu = CC(C)(C)O*

Tested on: CEM cells HIV-1 protection, formazan growth assay
Assay: NCI AIDS Antiviral Assay
Settings: for IC50: measured here: growth of uninfected CEM cells
Method in brief: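 Steps: treat uninfected and HIV-1-infected human CEM cells at five drug levels; quantify growth by soluble formazan; retest any compound reaching 50% protection; classify actives from the retest.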

SMILES | EC50 [µM] | IC50 | outcome
Cc1cccc(C)c1NC(=O)CCc1nnc2s/c(=C\c3ccc(Cl)cc3)c(=O)n12 | > 1.7 | > 1.7 µM | –
CCOP(=O)(CN1CCNCCN(CP(=O)(OCC)OCC)CC1)OCC | > 100 | > 100 µM | –
CCCSc1nc(COC(=O)NC)c(COC(=O)NC)n1C | > 200 | 83.2 µM | –
COc1ccc2c(c1)CCc1cc(OC)ccc1/[N+]([O-])=[N+]\2[O-] | > 17.4 | > 17.4 µM | –
COc1c(Cl)cc(S(=O)OC)cc1Cl (stereo not given) | – | – | inactive
O=C1/C(=C/c2cccc(Cl)c2)CCCc2ccccc21 | > 200 | 11.7 µM | –
COC(=O)c1c2n(c3ccccc13)C[C@H]1OC(C)(C)O[C@@H]21 | > 200 | 126 µM | –
Cc1ccc(NC(=O)CCc2nnc3s/c(=C\c4cccc([N+](=O)[O-])c4)c(=O)n23)cc1 | > 1.74 | > 1.74 µM | –
CC(=O)/C(=C/N1C(=O)CC(=O)NC1=S)C(=O)Nc1ccccc1C | > 200 | 178 µM | –
Cc1cc(N=Nc2ccc(Sc3ccc(N=Nc4ccc(O)c(C(=O)O)c4)cc3)cc2)c(N)c(N=Nc2ccc(N=Nc3ccc(S(=O)(=O)O)cc3)cc2)c1N | 5.62 | > 100 µM | –
CCCCCCCCSC1OC(CO)C(O)C(O)C1O (stereo not given) | – | – | inactive
COc1cc2cc(OC)c3cc4c(cc3c2c(OC)c1OC)OCO4 | > 39.8 | > 39.8 µM | –
c1ccc2c(c1)nc1n2CC2(CS1)CSc1nc3ccccc3n1C2 | – | – | inactive
C=C1C=CC2(Br)OC3CC(C)(Cl)C(Br)CC13C2(C)C (stereo not given) | – | – | inactive
CN(C)c1ccc(/C=C2\C=Cc3ccccc32)c(F)c1 | > 14.1 | > 14.1 µM | –
COc1cc(C2(C)OC(=O)c3ccccc32)c(OC)c2ccccc12 (stereo not given) | > 44.7 | 7.76 µM | –
c1cc2nnnn2nc1N1CCCC1 | > 200 | > 200 µM | –
O=[As](O)(O)c1cc(N=Nc2ccc(-c3ccc(N=Nc4cc([As](=O)(O)O)c(O)cc4O)cc3)cc2)c(O)cc1O | 6.61 | 7.76 µM | –
CC(=C/c1ccccc1)/C=C1/SC(=S)N(C=C2C(=O)NC(=O)NC2=O)C1=O | > 200 | 60.3 µM | –
O=C(Nc1ccc(Br)cc1)C(=O)C(C(=O)c1ccccc1F)C1OC(=O)c2ccccc21 (stereo not given) | > 263 | 35.5 µM | –
COc1c(Cl)cc(C(=CCCCCN[C@@H]2CC[C@@]3(C)[C@@H](CC[C@@H]4[C@@H]3CC[C@]3(C)[C@@H](C(C)CCCC(C)C)CC[C@@H]43)C2)c2cc(Cl)c(OC)c(C(=O)O)c2)cc1C(=O)O (stereo not given in full) | > 200 | > 200 µM | –

SMILES | EC50 [µM] | IC50 | outcome
CCCCc1ccc(Nc2nc3c(ncn3COCCO)c(=O)[nH]2)cc1 | > 200 | > 200 µM | –
O=c1c2ccccc2c(=O)c2c1cc(Cl)c1[nH]c3c([nH]c12)c(Cl)cc1c(=O)c2ccccc2c(=O)c13 | > 7.41 | > 7.41 µM | –
COc1cc(OC)c2nc(C)c3c(c2c1)SCC3 | > 200 | > 200 µM | –
NC(CSS(=O)(=O)O)=NCC1CCCCC1 | > 200 | 58.9 µM | –
CCOC(=O)Cc1csc(N/N=c2/sc(C=Nc3ccccc3)c(O)n2CC)n1 | > 200 | > 200 µM | –
O=C(Nc1ccccc1)N1CCC2N(C(=O)Nc3ccccc3)CCC3N(C(=O)Nc4ccccc4)CCC1N23 (stereo not given) | > 13.2 | > 13.2 µM | –
COc1ccc(C2=C(OC(C)=O)c3cccn3-c3ccc(Cl)cc3S2)cc1 | > 200 | 12.3 µM | –
Cc1ccc(S(=O)(=O)N=C2C=C(C(C)(C)C)C(=O)C(C(C)(C)C)=C2)cc1 | > 36.3 | > 36.3 µM | –
O=C(Cn1cc(-c2ccccc2)nn1)NC1CCCCC1 | > 200 | > 200 µM | –
O=c1cc(-c2ccccc2)[nH]c2nccn12 | > 200 | > 200 µM | –
CCC1Oc2c(CC=C(C)C)c(OC(C)=O)c(C(OC(C)=O)C(C)CC)c3oc(=O)cc1c23 (stereo not given) | > 200 | 95.5 µM | –
CCC1=CC2CN3CCc4c([nH]c5ccccc45)C(C(=O)OC)(C2)C13 (stereo not given) | – | – | inactive
COc1ccc(C)cc1C1CCC(=O)O1 (stereo not given) | > 1200 | > 1200 µM | –
CC1CC(=O)C(C(O)CC2CC(=O)N(c3ccccc3)C(=O)C2)C(C)C1 (stereo not given) | > 200 | > 200 µM | –
COc1ccc2c(c1)CCc1c-2n(CCN(C)C)c2ccc(OC)cc12 | > 200 | 6.17 µM | –
Cc1cc(OC(=O)c2c(C)cc(OC(=O)c3c(C)cc(O)cc3O)cc2O)cc(O)c1C(=O)O | > 77.6 | > 77.6 µM | –
CC(=O)NC(Cc1cnc[nH]1)C(=O)N1CCCC1C(N)=O (stereo not given) | > 200 | > 200 µM | –
N#C/C(=C\c1ccc(O)c(O)c1)C(=O)NCc1cccc(CNC(=O)/C(C#N)=C/c2ccc(O)c(O)c2)c1 | > 200 | 10.2 µM | –
CC1C(NNc2ccccc2)Oc2cc3c(cc2C1c1ccccc1O)OCO3 (stereo not given) | – | – | inactive
CC(C)S(=O)(=O)n1c(N)nc2ccc(/C(=N/O)c3ccccc3)cc21 | 5.01 | 9.77 µM | –
O=C(C(=Cc1ccc(F)cc1)C(=O)c1ccccc1)c1ccccc1 | > 110 | > 100 µM | –

SMILES | EC50 [µM] | IC50 | outcome
O=C1NC2C=CN(Cc3ccccc3)C=C2C(=O)N2CCCC12 (stereo not given) | > 6.46 | > 6.46 µM | –
Cc1cc2c(cc1Br)C1(C)CCC(C)C1(C)O2 (stereo not given) | > 50.1 | > 50.1 µM | –
CCCCCCCCCCCCCCCC[NH][Ge]([NH]CCCCCCCCCCCCCCCC)([NH]CCCCCCCCCCCCCCCC)[NH]CCCCCCCCCCCCCCCC | > 7.41 | 4.79 µM | –
CCOC(=O)c1[nH]c(Br)c(-c2ccc(OC)c(OC)c2)c1Br | > 200 | 0.0631 µM | –
O=C(NCCCCCCO)c1cccc2cc3ccccc3nc12 | > 200 | 18.6 µM | –
COC[C@@H](N=CN1CCc2cc(OC)c(OC)cc2[C@@H]1C)C(C)(C)C | > 513 | 490 µM | –
CCOC(=O)c1ccc(C(=O)/C(C(=O)OC(C)(C)C)=C2\CCCN2C)n1C | 89.1 | 141 µM | –
O=C1/C(=C\c2cccc(Oc3ccccc3)c2)SC(c2ccccc2)N1c1cc(Cl)ccc1Cl (stereo not given) | > 200 | 9.33 µM | –
CC1(C)C(=O)N(c2ccccc2)C(=O)N1c1nc2ccccc2[nH]1 | > 155 | > 155 µM | –
CCOC(=O)CCC(NC(=O)OCc1ccccc1)C(=O)NC(CCC(=O)OCC)C(=O)NC(CCC(=O)OCC)C(=O)NC(CCC(=O)OCC)C(=O)NC(CCC(=O)OCC)C(=O)NC(CCC(=O)OCC)C(=O)NC(CCC(=O)OCC)C(=O)OCC (stereo not given) | > 100 | 30.2 µM | –
O[C@H]1[C@@H](O)C2(C[C@@H]1Br)OC(COCc1ccccc1)[C@@H](COCc1ccccc1)O2 (stereo not given in full) | – | – | inactive
CC1(C)c2ccccc2C(=O)C12CCC(=O)CC2 | > 200 | > 200 µM | –
O=c1oc2cc(O)ccc2c(O)c1Cc1c(O)c2ccc(O)cc2oc1=O | > 200 | 162 µM | –
CN1CC=C(OP(=O)(NCc2ccccc2)N(CCCl)CCCl)CC1 (stereo not given) | > 200 | 135 µM | –
O=c1c2ccccc2c(=O)n2n1C1C=CC2C1 | > 44.7 | > 44.7 µM | –
Cc1cc(N(CCC#N)CCC#N)ccc1/C=C1\SC(=S)NC1=O | > 200 | 32.4 µM | –
COc1ccc2c(c1)C/C(=C\c1cccc3ccccc13)C2=O | > 200 | 51.3 µM | –
CC(=O)NNc1nc(C)c(C(/C=C/c2ccc(Cl)cc2)=N\N=C(N)N)s1 | > 18.2 | > 18.2 µM | –
COc1ccccc1S(=O)(=O)Sc1ccccc1[N+](=O)[O-] | > 81.3 | 25.7 µM | –
CC1OC(n2cnc3c(=O)[nH]cnc32)C(O)C(O)C1O (stereo not given) | > 200 | > 200 µM | –
NC(=O)C(Cc1ccccc1)NC(=O)c1ccccc1SC(=O)CCCC[n+]1ccccc1 (stereo not given) | > 200 | 4.47 µM | –

SMILES | EC50 [µM] | IC50 | outcome
Cc1nnc2nc(N)[nH]n2c1=O | > 200 | > 200 µM | –
COc1cc(Cc2c(OC)c(OC)cc(C)c2C(=O)O)cc(OC)c1 | > 145 | > 145 µM | –
CCC1(CCC#N)CCc2[nH]c3ccccc3c2C1=O (stereo not given) | > 200 | 174 µM | –
CCC1(N=[N+]=[N-])C(=O)Nc2cc(C)ccc2C1=O (stereo not given) | > 200 | > 100 µM | –
C=C=CP(=O)(c1ccccc1)c1ccccc1 | > 151 | 15.5 µM | –
Clc1ccc2c(Cl)ncnc2c1I | > 30.9 | 7.41 µM | –
CCOC(=O)c1nc2ccc(C(F)(F)F)cc2nc1Oc1ccc(C#N)cc1 | > 200 | > 200 µM | –
COC(=O)c1ccc(CO/N=C(\c2ccccc2)c2ccncc2)cc1 | > 200 | 66.1 µM | –
CSc1nc(C)c(CCOC(C)=O)c(N=P(c2ccccc2)(c2ccccc2)c2ccccc2)n1 | > 200 | 28.8 µM | –
O=[N+]([O-])c1cc(-c2nc(=S)[nH][nH]2)ccc1O | > 1050 | 257 µM | –
CCCCNC(=O)Sc1ccccc1C(=O)NCCS(N)(=O)=O | 0.141 | 50.1 µM | –
CC(=O)Nc1ccc(/C=C/c2ccc(N=C=S)cc2S(=O)(=O)O)c(S(=O)(=O)O)c1 | > 21.9 | > 21.9 µM | –
C/C(=N/OC(=O)N(C)C)c1ccccc1 | > 200 | > 200 µM | –
O=C1N=NC(Cl)c2ccccc21 (stereo not given) | > 28.8 | > 28.8 µM | –
NC(C(=O)O)C(CC(=O)O)c1ccccc1 (stereo not given) | > 200 | 112 µM and > 200 µM | –
O=C(O)c1ccc(N=Nc2cc(S(=O)(=O)O)c3cccnc3c2O)cc1 | > 19.5 | > 19.5 µM | –
CC1CC(C(=O)CC2CC(=O)NC(=O)C2)C(=O)[C@@H](C)C1 (stereo not given in full) | – | – | inactive
CN(C)CCCn1c(-c2cc(C(C)(C)C)c(O)c(C(C)(C)C)c2)csc1=Nc1ccccc1 | > 200 | 3.55 µM | –
CCCCCCCCCCCCCCCCN1CCC2SC3CN(CCCCCCCCCCCCCCCC)CCC3SC2C1 (stereo not given) | > 100 | > 100 µM | –
CC(C)C(C(=O)N(C)C(Cc1ccccc1)C(=O)N(C)C(C(=O)N(C)C(C(=O)N1CCCC1C(=O)OC(C)(C)C)C(C)C)C(C)C)N(C)C (stereo not given) (ξNMe2Val-[NMeF][NMeV][NMeV]P-OtBu; configuration not given here) | 24.5 | 110 µM | –
O=S(=O)(NC1OCCCC1I)c1ccccc1 (stereo not given) | > 200 | > 200 µM | –
